Measured values reported in patent US12097200B2, “Combination of BI853520 with chemotherapeutic drugs” (INXMED (NANJING) CO., LTD., priority 2020, dated 2024).
Values joined by “and” are separate entries in the source; they are usually repeats but may differ in a detail not shown here. Equal values may be shown once.

Columns and labels:
CTG-0956 = assay: Antitumor activity in ovarian cancer PDX model CTG-0956; type: in vivo, mouse; details: CTG-0956 (carboplatin and paclitaxel-resistant); 67 days until end of test; doses as Table 3
Procedure: (§3) Body weights (at start of dosing) were approximately 20 grams. […] Immunocompromised female mice were housed in HEPA ventilated cages (Innocage® IVC, Innovive USA) at 68-74° F. (20-23° C.) and 30-70% humidity under a 12-hour light/12-hour dark cycle. […] Animals with >10% body weight loss compared to day 0 received DietAel 76A (ClearH2O®, Portland, ME) for free. There were 3 mice in each group.
(§4) Mice were implanted with tumor cells from the ChampionsTumorGraft® ovarian model, which was established from patients previously treated with platinum-based therapy. After tumors reached 1000-1500 mm^3, they were collected, and tumor fragments SCs were implanted in the left flank of female pre-study mice. Each study animal was implanted with a specific passage batch. Tumor volume was measured twice a week with calipers to monitor tumor growth, and tumor volume (TV) was calculated using the formula (0.52×[length×width^2]). […] After initiation of dosing, animals were weighed daily using a digital scale and TV was measured twice weekly. […]
(§5) Inhibitory effect on tumor growth was determined by calculating TGI (100%×[1−(final MTV−initial MTV of the treatment group)/(final MTV−initial MTV of the control group)]). […]
(§6) CR: no TV could be detected (<4×4 mm^2), in 2 consecutive measurements […]

CTG-1166 = assay: Antitumor activity in ChampionsTumorGraft PDX ovarian cancer model CTG-1166
Procedure: as §3
Mice were implanted with tumor cells from the ChampionsTumorGraft® ovarian model, which was established from patients previously treated with platinum-based therapy. After tumors reached 1000-1500 mm^3, they were collected, and tumor fragments SCs were implanted in the left flank of female pre-study mice. Each study animal was implanted with a specific passage batch. Tumor volume was measured twice a week with calipers to monitor tumor growth, and tumor volume (TV) was calculated using the formula (0.52×[length×width^2]). When TV reached approximately 250-350 mm^3 (average 300 mm^3), animals were matched to tumor size and assigned to the control or treatment groups (study mice) and dosing started on day 0. After initiation of dosing, animals were weighed daily using a digital scale and TV was measured twice weekly. The study was terminated when the mean tumor volume in the control group reached approximately 1500 mm^3 or until day 60. In some models, the study was extended beyond Day 60 and dosing was also extended to the end of the study. Individual animals could be removed from the study when tumor volume reaches approximately 1500 mm^3.
Control 1: 0.5% Natrosol; control 2: 5% sterile glucose.
The control group for oral administration was 0.5% Natrosol. The control group for intravenous administration was 5% sterile glucose.
Carboplatin was a pre-formulated 10 mg/mL stock solution. PLD was a pre-formulated 2 mg/mL stock solution. Paclitaxel was a pre-formulated 6 mg/mL stock solution. These standard chemotherapeutic drugs were provided by Champions.
Data for each group, including body weight for each animal and mean body weight, were recorded, and the percentage change in mean body weight (% vD0) for each group relative to Day 0 was recorded, and the % vD0 was plotted at the completion of the study.
Animal deaths were recorded daily and determined as drug-related (D), technical (T), tumor-related (B), or unknown (U) based on weight loss and by visual inspection. […] The maximum mean % vD0 (body weight nadir) for each treatment group was reported at the end of the study.
Inhibitory effect on tumor growth was determined by calculating TGI (100%×[1−(final MTV−initial MTV of the treatment group)/(final MTV−initial MTV of the control group)]). Treatment was started on day 0. Tumor volumes in the treatment group were compared with those in the control group on the day the study was completed.
Other endpoints used to assess efficacy included number of CR, PR and TFS. PR and TFS were considered to exclude CR.
PR: TV≤30% of TV on day 0, in 2 consecutive measurements
CR: no TV could be detected (<4×4 mm^2), in 2 consecutive measurements
TFS: CR that persisted until the study was completed
Data were used for statistical analysis at the end of the study. Statistical comparisons of tumor volumes were performed using one-way analysis of variance followed by Newman-Keuls multiple comparison test to compare differences between all groups. Selected endpoints included as many groups as possible and as many animals per group as possible.
Tumor volumes from animals removed early due to tumor volume ≥1500 mm^3 were carried forward for analysis, but not more than 4 consecutive measurement time points.

CTG-0791 = assay: Antitumor activity in ovarian cancer PDX model CTG-0791; type: in vivo, mouse; details: CTG-0791 (carboplatin and paclitaxel-resistant); 35 days until end of test; doses as Table 3
Procedure: as §3, §4, §5, §6

HS 746T cells = assay: Antitumor activity in mouse xenograft model of human gastric cancer (HS 746T); type: in vivo; details: HS 746T xenograft, combination of both
Source text: (§1) For tumor volume, absolute values were used.
(§2) Appropriate statistical methods were used for evaluation.
HS 746T: Approximately 6 week old mice.

PC-3 cells = assay: Antitumor activity in mouse xenograft model of human prostate cancer (PC-3); details: PC-3 xenograft, combination of both
CTG-0868 = assay: Antitumor activity in ovarian cancer PDX model CTG-0868; type: in vivo, mouse; details: 25 days until end of test, doses as Table 3
Procedure: as §3, §4, §5, §6

CTG-1427 = assay: Antitumor activity in ovarian cancer PDX model CTG-1427; type: in vivo, mouse; details: 42 days until end of test, doses as Table 3
Procedure: as §3, §4, §5, §6

CTG-1433 = assay: Antitumor activity in ovarian cancer PDX model CTG-1433; type: in vivo, mouse; details: CTG-1433 (carboplatin and paclitaxel-resistant); 49 days until end of test; doses as Table 3
Procedure: as §3, §4, §5, §6

[1] = system: GXA 3039 gastric cancer PDX model
Procedure: Mice were housed in individual ventilated cages ([sequence] Sealsafe™-IVC-System, [sequence], Hohenpeissenberg, Germany), and type II or III cages were selected according to the number of experimental animals. The cages were under the conditions: 14L:10D light-dark cycle, air exchange (AC) rate of 60-65 AC/hr in the cage, 25±1° C. and 40-70% humidity. […] Water and diet were changed twice a week, and all materials were autoclaved before use.
Tumor fragments were implanted subcutaneously into the flank of female pre-study mice. […] Animals that were not randomized were euthanized. The date of randomization was designated as day 0 of the test, and dosing began on day 1. […] If less than 70% of the original number of mice survived (i.e. less than 6 out of 8), the entire group was terminated. […] Tolerability was assessed using the group with the largest median body weight loss (BWL) among groups.
Inhibition of tumor growth was determined by calculating TGI.
Additional endpoints used to assess efficacy included: time to tumor volume doubling/quadrupling and tumor growth delay/time to tumor progression/tumor repopulation.
Time to tumor volume doubling/quadrupling: The time to tumor volume doubling/quadrupling (Td/Tq) for the test and control groups was defined as the time interval (in days) required for each group to reach 200%/400% of the median RTV. The relative volume of a single tumor on day X (RTVx [%]) was obtained by dividing the absolute volume of the tumor on day X (Tx) by the absolute volume of the tumor on day 0 (T0) and then multiplying it by 100, as follows:
Tumor growth delay/time to tumor progression/tumor repopulation: To assess the difference in time to tumor progression/tumor repopulation after tumor regression during the no-dose observation period (tumor growth delay, TGD), Kaplan-Meier survival analysis was used. A relative tumor volume of 400% was defined as the endpoint.
The control group for oral administration was 0.5% Natrosol. The control group for intravenous administration was 0.9% saline. Each dose was 10 ml/kg.
Data were used for statistical analysis at the end of the study. The one-tailed nonparametric Mann-Whitney-Wilcoxon U test was used with the significance level a set at 0.05. The p-values obtained from the U-test were adjusted using the Bonferroni-Holm correction.
To assess the statistical significance of differences in time to tumor progression/tumor growth delay (TGD) using 400% of RTV as the trial endpoint, the Kaplan-Meier survival mode statistic was used in conjunction with the log-rank Mantel-Cox test for pairwise comparisons.
Additionally, to assess tolerance to treatment, a two-tailed nonparametric Mann-Whitney-Wilcoxon U test was performed using body weights determined at the end of the dosing period (i.e., on the day TGI values were calculated).
By convention, p-values≤0.05 represented significant tumor inhibition or weight loss.

CTG-1677 = assay: Antitumor activity in ovarian cancer PDX model CTG-1677; type: in vivo, mouse; details: 32 days until end of test, doses as Table 3
Procedure: as §3, §4, §5, §6

CTG-1301 = assay: Antitumor activity in ovarian cancer PDX model CTG-1301; type: in vivo, mouse; details: CTG-1301 (carboplatin and paclitaxel-resistant); 38 days until end of test; doses as Table 3
Procedure: as §3, §4, §5, §6

TOV-21G cells = assay: Antitumor activity in mouse model of human ovarian cancer (TOV-21G xenograft); type: in vivo; details: combination of both
Source text: as §1, §2
TOV-21G cells harboring KRAS and PIK3CA gene mutations were obtained from ATCC (CRL-11730).

CTG-1602 = assay: Antitumor activity in ovarian cancer PDX model CTG-1602; type: in vivo, mouse; details: 14 days until end of test, doses as Table 3
Procedure: as §3, §4, §5, §6

CTG-0992 = assay: Antitumor activity in ovarian cancer PDX model CTG-0992; type: in vivo, mouse; details: CTG-0992 (carboplatin and paclitaxel-resistant); 60 days until end of test; doses as Table 3
Procedure: as §3, §4, §5, §6

NCI-H520 cells = details: NCI-H520 xenograft, day 22, combination of both
Procedure: Mice were approximately 6 weeks old. There were 5 mice in each group.
The cell concentration of the culture was maintained between 8×10^6 to 12×10^7 cells/tissue culture flask.
Cisplatin was dissolved in 0.9% saline.
Statistical evaluation was performed using the Student's t-test function in Microsoft Excel, utilizing a two-tailed distribution and a two-sample equal variance type.

CTG-1086 = assay: Antitumor activity in ovarian cancer PDX model CTG-1086; type: in vivo, mouse; details: 28 days until end of test, doses as Table 3
Procedure: as §3, §4, §5, §6

KYSE-270 cells = assay: Antitumor activity in mouse xenograft model of human esophageal cancer (KYSE-270); type: in vivo; details: KYSE-270 xenograft, combination of both
Source text: as §1, §2
Mice were approximately 8-10 weeks old.
KYSE-270 was a cell line for esophageal cancer (Public Health England, Cat. No. 94072021).

CTG-1180 = assay: Antitumor activity in ovarian cancer PDX model CTG-1180; type: in vivo, mouse; details: CTG-1180 (carboplatin and paclitaxel-resistant); 42 days until end of test; doses as Table 3
Procedure: as §3, §4, §5, §6

CTG-0964 = assay: Antitumor activity in ovarian cancer PDX model CTG-0964; type: in vivo, mouse; details: CTG-0964 (carboplatin and paclitaxel-resistant); 35 days until end of test; doses as Table 3
Procedure: as §3, §4, §5, §6

CTG-1498 = assay: Antitumor activity in ovarian cancer PDX model CTG-1498; type: in vivo, mouse; details: CTG-1498 (carboplatin and paclitaxel-resistant); 98 days until end of test; doses as Table 3
Procedure: as §3, §4, §5, §6

CTG-1627 = assay: Antitumor activity in ovarian cancer PDX model CTG-1627; type: in vivo, mouse; details: 28 days until end of test, doses as Table 3
Procedure: as §3, §4, §5, §6

CTG-1649 = assay: Antitumor activity in ovarian cancer PDX model CTG-1649; type: in vivo, mouse; details: 40 days until end of test, doses as Table 3
Procedure: as §3, §4, §5, §6

KYSE-70 cells = assay: Antitumor activity in mouse xenograft model of human esophageal cancer (KYSE-70); type: in vivo; details: KYSE-70 xenograft, combination of both
[2] = CTG-1166 PDX, Day 0-56, n=3 per group, doses as Table 4
[3] = CTG-1166 PDX, day 17, BI 853520 50 mg/kg PO BID, PLD 3 mg/kg IV q7d, carboplatin 25 mg/kg IP q7dx3 + paclitaxel 20 mg/kg IV q7dx3
[4] = BI 853520 50 mg/kg qd, docetaxel 10 mg/kg q7d
[5] = BI 853520 25 mg/kg qd, docetaxel 7.5 mg/kg q7d
[6] = day 22, BI 853520 12.5 mg/kg qd by gavage, PLD 1 mg/kg q7d i.v.
[7] = BI 853520 50 mg/kg qd, cisplatin 5 mg/kg IP q7d
[8] = BI 853520 50 mg/kg qd, paclitaxel 10 mg/kg q7d

COc1cc(C(=O)NC2CCN(C)CC2)c(F)cc1Nc1ncc(C(F)(F)F)c(Oc2cccc3c2C(=O)N(C)C3)n1 [BI 853520, 2-fluoro-5-methoxy-4-[(4-(2-methyl-3-oxo-2,3-dihydro-1H-isoindole-4-oxy)-5-trifluoromethyl-pyrimidin-2-yl)amino]-N-(1-methyl-piperidin-4-yl)benzamide]
TGI (%) (CTG-0956): 77%
#CR (complete responses) (CTG-1166; [2]): 0/0/0
#PR (partial responses) (CTG-1166; [2]): 0/0/0
#TFS (tumor-free survivors) (CTG-1166; [2]): 0/0/0
Body weight (day 17) % vD0 (CTG-1166; CTG-1166 PDX, day 17, change in mean body weight relative to Day 0): 4.0%
% TGI (CTG-1166; [3]): 89%
Tumor volume (day 17) Mean ± SEM (CTG-1166; [3]): 366 ± 78 mm^3
Dead Total (CTG-1166; CTG-1166 PDX, animal deaths, n=3 per group): 0
Body weight nadir Day (CTG-1166; CTG-1166 PDX, day of body weight nadir): 13
Antitumor activity (in words) (CTG-1166; CTG-1166 PDX, doses as Table 4): significant inhibitory effect on tumor growth
Body weight (day 17) Mean ± SEM (CTG-1166; mouse, in vivo): 26.7 ± 0.4 g
Body weight nadir % vD0(max) (CTG-1166; mouse, in vivo, po, 50 mg/kg): −0.7%
TGI (%) (CTG-0791): −21%
Median tumor volume (HS 746T cells; day 24 (withdrawal on day 28), BI 853520 50 mg/kg qd by gavage, docetaxel 10 mg/kg q7d i.v.): 229 mm^3
Antitumor effect (in words) (HS 746T cells; [4]): had inhibitory effect
Change in median body weight (HS 746T cells; [4]): 7.3%
TGI (HS 746T cells; [4]): 93%
Tumor regression (animals with regression/animals in group) (HS 746T cells; [4]): 1 of 8 and 1/8
Median tumor volume (PC-3 cells; day 35 (withdrawal on day 28), BI 853520 25 mg/kg qd by gavage, docetaxel 7.5 mg/kg q7d i.v.): 316 mm^3
Antitumor effect (in words) (PC-3 cells; [5]): certain inhibitory effect on tumor growth
Change in median body weight (PC-3 cells; [5]): 2.4%
TGI (PC-3 cells; [5]): 66%
Tumor regression (animals with regression/animals in group) (PC-3 cells; [5]): 0/7
TGI (%) (CTG-0868): 54%
TGI (%) (CTG-1427): 59%
TGI (%) (CTG-1433): 61%
Antitumor effect (in words) ([1]; GXA 3039 PDX, doses as Table 8): did not show any antitumor efficacy
Td (time to tumor volume doubling) ([1]; GXA 3039 PDX, time to 200% of median RTV, doses as Table 8): 8.1 days
Tq (time to tumor volume quadrupling) ([1]; GXA 3039 PDX, time to 400% of median RTV, nr = not reached until end of test, doses as Table 8): 41.2 days
TGI [%] (d) ([1]; GXA 3039 gastric cancer PDX, day 36, BI 853520 50 mg/kg/d PO days 1-35, docetaxel 10 mg/kg IV days 1, 8, 15, 22, 29, combination of both): 0% and 0(36) %
Survival rate ([1]; female, BomTac:NMRI-Foxn1nu, mouse, in vivo): 4/8
TGI (%) (CTG-1677): 51%
TGI (%) (CTG-1301): 43%
Antitumor effect (in words) (TOV-21G cells; BI 853520 12.5 mg/kg qd, PLD 1 mg/kg q7d): good efficacy at low doses
TGI (TOV-21G cells; day 1 to day 22, median tumor volumes, BI 853520 12.5 mg/kg qd, PLD 1 mg/kg q7d): 67%
Median tumor volume (TOV-21G cells; [6]): 271 mm^3
Tumor regression (animals with regression/animals in group) (TOV-21G cells; [6]): no tumor regression and 0/7
TGI (%) (CTG-1602): −1%
TGI (%) (CTG-0992): 49%
Median tumor volume (NCI-H520 cells; BI 853520 50 mg/kg qd by gavage, cisplatin 5 mg/kg IP once a week): 352 mm^3
Median TGI (NCI-H520 cells; [7]): 54%
Tumor regression (animals with regression/animals in group) (NCI-H520 cells; [7]): 0/7
TGI (%) (CTG-1086): 39%
Median tumor volume (KYSE-270 cells; day 13, BI 853520 50 mg/kg qd by gavage, paclitaxel 10 mg/kg q7d i.v.): 126 mm^3
TGI (KYSE-270 cells; day 13, BI 853520 50 mg/kg qd, paclitaxel 10 mg/kg q7d): 106%
Antitumor effect (in words) (KYSE-270 cells; [8]): had inhibitory effect on tumor growth
Change in median body weight (KYSE-270 cells; [8]): 2.8%
Tumor regression (animals with regression/animals in group) (KYSE-270 cells; [8]): 6 of 7 and 6/7
TGI (%) (CTG-1180): 33%
TGI (%) (CTG-0964): 66%
TGI (%) (CTG-1498): 128%
TGI (%) (CTG-1627): 50%
TGI (%) (CTG-1649): 71%
Median tumor volume (KYSE-70 cells; day 42, BI 853520 50 mg/kg qd by gavage, docetaxel 10 mg/kg q7d i.v.): 497 mm^3
Antitumor effect (in words) (KYSE-70 cells; [4]): no inhibitory effect on tumor growth
Change in median body weight (KYSE-70 cells; [4]): 8.8%
TGI (KYSE-70 cells; [4]): 42%
Tumor regression (animals with regression/animals in group) (KYSE-70 cells; [4]): 1 of the 7 and 1/7
